Assay results from patent US8735569B2, “Nucleoside phosphoramidates” (Gilead Pharmasset LLC, priority 2009, dated 2014).
Values after ≈ are worked out from the molar mass of the structure shown.

How the values were obtained:
[1] = Thermodynamic aqueous solubility; format: physicochemical; conditions: for pH of Unfiltered mixture: aqueous suspension after 24 hours at 25° C.; for solubility at 24 h / Solubility: water; for solubility at 24 h: 25 °C, thermodynamic from solid, summary of batch characterization (Table 16), read-out: Aq Solubility; for Solubility: equilibrated at 25° C. for 24 hours, HPLC quantitation
Method: Aqueous solubility was determined by suspending a sufficient amount of compound in water to give a maximum final concentration of >10 mg·ml^−1 of the parent free-form of the compound. The suspension was equilibrated at 25° C. for 24 hours then the pH was measured. The suspension was then filtered through a glass fiber C filter into a 96 well plate. The filtrate was then diluted by a factor of 101. Quantitation was by HPLC with reference to a standard solution of approximately 0.1 mg·ml^−1 in DMSO. Different volumes of the standard, diluted and undiluted sample solutions were injected. The solubility was calculated using the peak areas determined by integration of the peak found at the same retention time as the principal peak in the standard injection.
Analysis was performed under the above-noted conditions on an Agilent HP1100 series system equipped with a diode array detector and using ChemStation software vB.02.01-SR1.

[2] = system: HCV replication; assay: HCV replicon assay (firefly luciferase reporter); format: cell-based, hepatitis C virus; conditions: replicon containing cells, 4 days incubation, Bright-Glo firefly luciferase reporter
Method: Replicon containing cells were seeded at either 3,000 cells/well (50 μL) in 96-well white/opaque plates, or 1,500 cells/well (25 μL) in 384-well white/opaque plates. 50 μL of 2× compound were added in the 96 well plate or 25 μL of 2× compound were added in the 384 well plate. The plates were incubated at 37° C. in a humidified 5% CO2 atmosphere for 4 days. After incubation, Bright-Glo reagent (50 μL for 96-well plate, or 25 μL for 384-well plate) was added to measure the firefly luciferase reporter for HCV replication. Percent inhibition was calculated against the no drug control.

[3] = Stability at elevated temperatures and relative humidity; format: physicochemical
Method: A sample of RP-4 was stored in a humidity chamber at 40° C. and 75% relative humidity for one week, and the sample was reanalyzed by XRPD. […] This should be contrasted to a sample of 4, which deliquesced within about 16 hours upon storage at 40° C. and 75% relative humidity. Indeed, an illustration of the deliquescent nature of 4 is illustrated by the following. A sample of 4 was passed through a 250 μm sieve then samples were stored at 40° C./75% RH and 25° C./53% relative humidity and visual observations were taken at regular intervals.
Upon storage at 40° C. and 75% relative humidity a sample of SP-4 deliquesced inside 16 hours. For instance, a sample of SP-4 was ground with a pestle and mortar, and then successively passed through 500 and 250 μm sieves to yield the sample as a fine powder. Samples of this material were stored at 40° C. and 75% relative humidity and 25° C. and 53% RH and visual observations were taken at regular intervals.

[4] = system: hepatitis C virus, genotypes 1-4; assay: Genotype coverage
[5] = Gravimetric vapour sorption (GVS); format: physicochemical; conditions: 25° C.
Method: Sorption isotherms were obtained using a SMS DVS Intrinsic moisture sorption analyzer, controlled by SMS Analysis Suite software. The sample temperature was maintained at 25° C. by the instrument controls. The humidity was controlled by mixing streams of dry and wet nitrogen, with a total flow rate of 200 ml·min^−1. The relative humidity was measured by a calibrated Rotronic probe (dynamic range of 1.0-100% RH), located near the sample. The weight change, (mass relaxation) of the sample as a function of % RH was constantly monitored by the microbalance (accuracy ±0.005 mg).
Typically 5-20 mg of sample was placed in a tared mesh stainless steel basket under ambient conditions. The sample was loaded and unloaded at 40% RH and 25° C. (typical room conditions). A moisture sorption isotherm was performed as outlined below (2 scans giving 1 complete cycle). The standard isotherm was performed at 25° C. at 10% RH intervals over a 0.5-90% RH range.
The sample was recovered after completion of the isotherm and re-analyzed by XRPD.
A sample of SP-4 was ground with a pestle and mortar, and then successively passed through 500 and 250 μm sieves to yield the sample as a fine powder that was then analyzed using a modified single cycle method. The sample was taken from 40% RH (approximately ambient) to 60% RH, instead of 90% for the standard method, and then cycled to 0% and back to 40% RH.

[6] = Storage stability of crystalline form in a sealed container; format: physicochemical
Source text: First, by allowing fine crystals of Form 1 to be exposed to atmospheric humidity for several days, a monohydrate of Form 1 is produced with an appearance of a solidified gum. After grinding the monohydrate solid to a fine powder, the XRPD pattern remains consistent with Form 1. Upon standing in an open vessel for 6-10 weeks, the ground material slowly changes to Form 6 as an anhydrous solid. Form 1 is stable for at least 2 years in a sealed container.

[7] = summary of batch characterization (Table 16)

Compound	pH of Unfiltered mixture [1]	solubility at 24 h [1]	Solubility [1]	HCV Replicon Activity [2]	change in solid form by XRPD after storage ([3]; 40° C. and 75% relative humidity for one week)	40° C./75% RH (stability summary) [3, 7]	activity against hepatitis C virus, genotypes 1-4 (broad genotype coverage) [4]	hygroscopicity by GVS analysis [5]	reversible uptake of water ([5]; from 0 to 90% relative humidity)	time to deliquescence upon storage ([3]; 40° C. and 75% relative humidity)	25° C./53% RH (stability summary) [3, 7]	stable in a sealed container [6]	visual observation (stability to elevated relative humidity) ([3]; 40° C./75% RH, t = 4.5 h)
CC(C)OC(=O)[C@H](C)N[P@@](=O)(OC[C@H]1O[C@@H](n2ccc(=O)[nH]c2=O)[C@](C)(F)[C@@H]1O)Oc1ccccc1 (single isomer, unassigned) [RP-4]	7.12	1580 µg/mL (≈ 2.98 mM)	1.58 mg. m1^−1	2.87 µM	no change in solid form was observed	No form change	active	non-hygroscopic	approximately 0.2 wt %				
CC(C)OC(=O)[C@H](C)NP(=O)(OC[C@H]1O[C@@H](n2ccc(=O)[nH]c2=O)[C@](C)(F)[C@@H]1O)Oc1ccccc1 (stereo partly drawn) [Compound 4, (S)-2-{[(1R,4R,5R)-5-(2,4-Dioxo-3,4-dihydro-2H-pyrimidin-1-yl)-4-(R)-fluoro-3-hydroxy-4-methyl-tetrahydro-furan-2-ylmethoxy]-phenoxy-phosphorylamino}-propionic acid isopropyl ester]	7.03	6110 µg/mL (≈ 11.5 mM)	6.11 mg. m1^−1	0.58 µM						≤ 16 h	Deliquescence		
CC(C)OC(=O)[C@H](C)N[P@](=O)(OC[C@H]1O[C@@H](n2ccc(=O)[nH]c2=O)[C@](C)(F)[C@@H]1O)Oc1ccccc1 [Form 1]												at least 2 years	
CC(C)OC(=O)[C@H](C)N[P@](=O)(OC[C@H]1O[C@@H](n2ccc(=O)[nH]c2=O)[C@](C)(F)[C@@H]1O)Oc1ccccc1 [SP-4, (S)-Isopropyl 2-((S)-(((2R,3R,4R,5R)-5-(2,4-dioxo-3,4-dihydropyrimidin-1(2H)-yl)-4-fluoro-3-hydroxy-4-methyltetrahydrofuran-2-yl)methoxy)(phenoxy)phosphorylamino)propanoate]		5650 µg/mL (≈ 10.7 mM)	5.65 mg. m1^−1	0.13 µM			active				No form change		Deliquescence
